A word on the kinact: it is the maximal first-order rate at which the target is inactivated. The term kinact/KI denotes the maximal inactivation rate divided by the concentration that gives half of it. In general, MIC refers to the lowest concentration that inhibits growth of the organism. By MIC90 is commonly meant an inhibitory concentration at the 90% level, which refers to growth in some studies and to a panel of isolates in others.

Read-outs that look alike come from different tables or passages of the source.

In experiment [1] the target is T1, VIM-2 (Escherichia coli, UniProt Q5U7L7).
T1 construct: made in house
The experiment can be described thus: Time-dependent inactivation kinetics of purified VIM-2 (nitrocefin). It counts as biochemical. The protocol: Protein expression and purification of NDM-1 and VIM-2 were performed as previously described ([36], [43], [57]). Stock solutions of purified NDM-1 and VIM-2 were prepared in 50 mM HEPES buffer (pH 7.5; Merck). Inhibition of NDM-1 and VIM-2 were determined for ZN148 and the analogues ZN222, ZN223, and ZN228 at different concentrations of inhibitor after preincubation times of 2, 8, 15, 25, and 32 min in 50 mM HEPES buffer (pH 7.5) supplemented with 1 μM ZnSO4 (Sigma-Aldrich) and bovine serum albumin (Sigma-Aldrich; final concentration, 2 μg/ml) at 25°C. Concentrations of 1 nM VIM-2 and 30 nM NDM-1 were used, and the reaction was initiated by the addition of 30 μM nitrocefin (Merck) for VIM-2 or 100 μM imipenem (Sigma-Aldrich) for NDM-1. The reaction was measured at 482 nm (VIM-2) or […] (NDM-1) in either standard 96-well plates (Thermo Fisher Scientific) for VIM-2 or UV-transparent 96-well plates (Corning, Kennebunk, ME) for NDM-1 at 25°C in a SpectraMax Plus plate reader (Molecular Devices). All of the enzyme and substrate concentrations indicated are the final concentrations in the assay. The enzyme activity as a percentage was calculated based on the initial velocity and compared to the control without inhibitor compound. All tests were performed at least in duplicates.
The observed rate constant (kobs) per inhibitor concentration was calculated from the slope of a semilog plot of the enzyme activity in percent versus preincubation time.
By fitting these values, the irreversible kinetic parameters maximum inactivation rate (kinact) and the inhibitor concentration that produces half-maximal rate of inactivation (KI) were obtained. Finally, the inhibitors were characterized by calculating kinact/KI. Where no saturation curve could be observed, KI and kinact were determined from the linear part of plot 1/kobs versus 1/[I].

Experiment [2] concerns NDM-1-producing K. pneumoniae K66-45. Briefly: Meropenem MIC, broth microdilution, indicator strain K66-45. It counts as cell-based. Conditions: for MIC: Klebsiella pneumoniae. The protocol: (§1) MICs of carbapenems alone and in combination with inhibitors were determined by broth microdilution according to the Clinical and Laboratory Standards Institute (CLSI) guidelines ([48]) using either premade plates (TREK Diagnostic Systems/Thermo Fisher Scientific, East Grinstead, United Kingdom) with meropenem or in-house-prepared plates with meropenem, imipenem, and doripenem. ZN148 and other inhibitors were tested at a fixed concentration of 50 μM. Cation-adjusted Mueller-Hinton medium (TREK Diagnostic Systems/Thermo Fisher Scientific; Becton Dickinson, Franklin Lakes, NJ) were used as growth medium. The plates were incubated for 20 h at 37°C. ZN148, ZN222, ZN223, ZN228, and TPA were initially tested in combination with meropenem using two indicator strains: NDM-1-producing K. pneumoniae ([49], [50]) and VIM-2-producing P. aeruginosa ([51]). The activity of ZN148 were subsequently tested against two extended strain collections: (i) in combination with meropenem against MBL-producing Enterobacterales (n = 62), MBL-producing P. aeruginosa (n = 9) and MBL- and class D carbapenemase-coproducing Enterobacterales (n = 5) from the strain collection at the Norwegian National Advisory Unit on Detection of Antimicrobial Resistance and (ii) in combination with meropenem, imipenem, and doripenem against globally collected MBL-producing E. coli (n = 87), K. pneumoniae (n = 85), P. aeruginosa (n = 52), and A. baumannii (n = 6), MBL- and class A/D carbapenemase-coproducing E. coli (n = 11), K. pneumoniae (n = 15) and A. baumannii (n = 7) at IHMA Europe, Sàrl, Switzerland. E. coli ATCC 25922 and P. aeruginosa ATCC 27853 were used as quality control strains. The MBL inhibitors were also tested for intrinsic antibacterial activity against the strains.

Experiment [3] has as its system VIM-2-producing P. aeruginosa K34-7. The experiment can be described thus: Meropenem MIC, broth microdilution, indicator strain K34-7. It is filed as cell-based. The protocol:
as §1
On the technique in general: Dilution methods test growth across graded concentrations, often in twofold steps.

Experiment [4] concerns MBL-producing Enterobacterales (n=234). The experiment can be described thus: Meropenem MIC distribution, all MBL-producing Enterobacterales. It is filed as cell-based. Conditions: for No. of strains with indicated MIC: MEM alone or +50 µM ZN148. The protocol: as §1
Experiment [5] has as its system 173 MBL-producing E. coli and K. pneumoniae strains. The experiment can be described thus: Doripenem and imipenem MIC, MBL-producing E. coli and K. pneumoniae subset. It is filed as cell-based. To be noted: 50 μM ZN148; 173 strains. As to the method: (§2) MICs of carbapenems alone and in combination with inhibitors were determined by broth microdilution according to the Clinical and Laboratory Standards Institute (CLSI) guidelines ([48]) using either premade plates (TREK Diagnostic Systems/Thermo Fisher Scientific, East Grinstead, United Kingdom) with meropenem or in-house-prepared plates with meropenem, imipenem, and doripenem. ZN148 and other inhibitors were tested at a fixed concentration of 50 μM. Cation-adjusted Mueller-Hinton medium (TREK Diagnostic Systems/Thermo Fisher Scientific; Becton Dickinson, Franklin Lakes, NJ) were used as growth medium. The plates were incubated for 20 h at 37°C. ZN148, ZN222, ZN223, ZN228, and TPA were initially tested in combination with meropenem using two indicator strains: NDM-1-producing K. pneumoniae ([49], [50]) and VIM-2-producing P. aeruginosa ([51]). […]

The subject of experiment [6] is NDM-1-producing A. baumannii strains (n=6). The experiment can be described thus: Carbapenem MIC, NDM-1-producing A. baumannii. It counts as cell-based. As to the method:
as §1

The test system of experiment [7] is NDM-1-producing K. pneumoniae K66-45. The experiment can be described thus: Time-kill assay. It counts as cell-based. The protocol: To determine the kinetics of killing of the meropenem-ZN148 combination, NDM-1-producing K. pneumoniae K66-45 (1 × 10^6 CFU/ml) in cation-adjusted Mueller-Hinton broth II (Sigma-Aldrich, St. Louis, MO) was treated with either 4 mg/liter meropenem or a combination of 4 mg/liter meropenem plus 50 or 100 μM ZN148 and grown at 37°C with shaking (180 rpm). The cell number was determined over the course of 24 h by using a modified Miles-Misra method ([52]). Briefly, […] serial dilutions of culture in sterile PBS were spotted and dried on square (10 by 10 cm) Luria-Bertani agar (Oxoid, Basingstoke, UK) plates at room temperature before incubation at 37°C. The limit of detection was set as […] in […] of undiluted culture, representing 100 CFU/ml.

For experiment [8], the system named is strains harboring only the class A carbapenemase KPC. Briefly: Carbapenem potentiation, strains with only KPC. To be noted: 50 μM ZN148. It is filed as cell-based.
In experiment [9] the test system is E. coli with IMP (n=3). Briefly: Meropenem MIC distribution, E. coli with IMP. It counts as cell-based. Conditions: MEM alone or +50 µM ZN148. As to the method: as §2
Experiment [10] has as its system K. pneumoniae with NDM (n=95). The experiment can be described thus: Meropenem MIC distribution, K. pneumoniae with NDM. To be noted: MEM alone or +50 µM ZN148. It counts as cell-based. As to the method: as §1
The test system of experiment [11] is K. pneumoniae co-producing MBLs and class A/D serine carbapenemases. Briefly: Carbapenem MIC, K. pneumoniae co-producing MBLs and class D carbapenemases. It is filed as cell-based. As to the method: as §1
Where [12] appears, read: meropenem 4 mg/liter with either 50 or 100 μM ZN148.

As to `CN(C[C@H](O)[C@@H](O)[C@H](O)[C@H](O)CO)C(=O)c1ccc(CN(Cc2ccccn2)Cc2ccccn2)nc1` [ZN148], in experiment [1], the kinact is 0.00262 s⁻¹ and the kinact/KI was 110 M⁻¹ s⁻¹. For the same compound, in experiment [2] (inhibitor at 50 μM), the “restoration of meropenem clinical susceptibility (EUCAST breakpoints)” value is “fully restored meropenem clinical susceptibility”. Moreover, in [3] (inhibitor at 50 μM), the “restoration of meropenem clinical susceptibility (EUCAST breakpoints)” value was “fully restored meropenem clinical susceptibility”. Further, in experiment [4] (ZN148 at 50 μM, n = 234), the “strains with meropenem MIC reduced to susceptible levels (≤2 mg/liter)” value was greater than 98%. In addition, in experiment [5], the “strains with doripenem MIC reduced to susceptible levels” value was greater than 99% and the “strains with imipenem MIC reduced to susceptible levels” value was greater than 99%. In [6] (in four of six clinical strains, class D carbapenemase-negative), the “reduction of meropenem MIC” value was greater than 2 fold. Moreover, in experiment [7] (setting [12]), the “cell numbers after 8 h (below limit of detection)” value is on record as < 1 × 10^2 CFU/ml, the “killing effect of combination” value is listed as “bactericidal” and the “regrowth within 24 h” value is “no regrowth”. In addition, in experiment [8], the “potentiation of meropenem, doripenem, or imipenem” value is “no potentiation”.
For the compound `C[C@@H](O)[C@H]1C(=O)N2C(C(=O)O)=C(S[C@@H]3CN[C@H](C(=O)N(C)C)C3)[C@H](C)[C@H]12` [meropenem], the MIC was greater than 32 µg/mL in experiment [2] (alone or in presence of 30 µM, 50 µM or 100 µM ZN148 (Table S6 title), read-out: MIC of meropenem); 32 to 64 µg/mL in [2] (meropenem alone or +50 µM TPA or ZN148, read-out: Meropenem MIC); 32 to 64 µg/mL in experiment [3] (Pseudomonas aeruginosa, meropenem alone or +50 µM TPA or ZN148); greater than 64 µg/mL in experiment [6] (carbapenem alone or in combination with 50µM ZN148, one value per strain (n=6)); greater than 64 µg/mL in [11] (NDM + OXA-48-like strains, meropenem alone or with 50µM ZN148, one value per strain); greater than 64 µg/mL in experiment [11] (NDM-1 + OXA-181 strain, meropenem alone or with 50µM ZN148). The MIC in [11] (NDM-5 + OXA-181 strains, carbapenem alone or with 50µM ZN148, one value per strain) is greater than 64 µg/mL. The “No. of strains with indicated MIC” value in experiment [9] (MIC 4 mg/L) is 1; in experiment [9] (MIC 16 mg/L) it was 2; in experiment [10] (MIC 2 mg/L) it was 1; in [10] (MIC 8 mg/L) it was 1; in experiment [10] (MIC 16 mg/L) it was 3; in [10] (MIC 32 mg/L), 10. Further, the “No. of strains with indicated MIC” value is recorded as 80 in experiment [10] (MIC ≥64 mg/L); 1 in experiment [4] (MIC 0.5 mg/L); 2 in experiment [4] (MIC 1 mg/L); 3 in [4] (MIC 2 mg/L); 10 in experiment [4] (MIC 4 mg/L); 9 in experiment [4] (MIC 8 mg/L). Moreover, the “No. of strains with indicated MIC” value in [4] (MIC 16 mg/L) came to 22; in [4] (MIC 32 mg/L), 35; in experiment [4] (MIC ≥64 mg/L) it was 152. Also, the MIC90 in experiment [4] was no less than 64 µg/mL. In addition, in experiment [7] (meropenem alone 4 mg/liter), the “cell number after 24 h” value is > 1 × 10^9 CFU/ml. In experiment [7] (meropenem alone 4 mg/liter), the “initial reduction in cell numbers (bacteriostatic effect)” value came to 2 log.

Values taken from PMC7269481, “ZN148 Is a Modular Synthetic Metallo-β-Lactamase Inhibitor That Reverses Carbapenem Resistance in Gram-Negative Pathogens In Vivo” (Antimicrobial Agents and Chemotherapy, 2020).
